Data from ChEMBL document CHEMBL1144250, “3D QSAR studies on GSK-3 inhibition by aloisines” (Bioorg Med Chem Lett, 2005).

Biological target: Glycogen synthase kinase-3 (Homo sapiens, UniProt P49840+P49841)
Test: Inhibitory concentration against Glycogen synthase kinase-3
Assay type: protein assay

Row | Compound | Log IC50
1 | CCCCCCCc1c(-c2ccc(OC)cc2)[nH]c2nccnc12 | -5
2 | COc1ccc(-c2cc3[nH]ccnc-3n2)cc1 | -5.96
3 | COc1cccc(-c2cc3[nH]ccnc-3n2)c1 | -5.5
4 | Oc1ccccc1-c1cc2[nH]ccnc-2n1 | -5.19
5 | CN(C)c1ccc(-c2cc3[nH]ccnc-3n2)cc1 | -4.92
6 | Brc1ccc(-c2cc3[nH]ccnc-3n2)cc1 | -5.22
7 | N#Cc1ccc(-c2cc3[nH]ccnc-3n2)cc1 | -5.32
8 | Cc1c(-c2ccc(OS(=O)(=O)N(C)C)cc2)[nH]c2nccnc12 | -6.3
9 | COc1ccc(-c2[nH]c3nccnc3c2CC2CC2)cc1 | -5.96
10 | COc1cc(-c2cc3[nH]ccnc-3n2)cc(OC)c1OC | -4.7
11 | COc1cc(OC)cc(-c2cc3[nH]ccnc-3n2)c1 | -4.22
12 | FC(F)(F)c1ccc(-c2cc3[nH]ccnc-3n2)cc1 | -5.14
13 | Fc1ccc(-c2cc3[nH]ccnc-3n2)cc1 | -5.72
14 | COc1ccccc1-c1cc2[nH]ccnc-2n1 | -5.48
15 | Oc1ccc(-c2[nH]c3nccnc3c2CC2CC2)cc1 | -5.52
16 | Cc1ccc(-c2cc3[nH]ccnc-3n2)cc1 | -5.59
17 | c1ccc(Cc2c(-c3ccccc3)[nH]c3nccnc23)cc1 | -6
18 | COc1ccc(-c2[nH]c3nccnc3c2C)cc1OC | -5.7
19 | Oc1ccc(-c2cc3[nH]ccnc-3n2)cc1 | -5.92
20 | COc1ccc(-c2[nH]c3nccnc3c2CC2CCCCC2)cc1 | -5.17
21 | c1ccc(-c2cc3[nH]ccnc-3n2)cc1 | -5.64

Other lines, results leading:

Row | Log IC50 | Compound
22 | -5.23 | CCCCc1c(-c2ccc(Cl)cc2)[nH]c2nccnc12
23 | -6.4 | CCCc1c(-c2ccc(OC)cc2)[nH]c2nccnc12
24 | -5.17 | Clc1ccc(-c2[nH]c3nccnc3c2Cc2ccccc2)cc1
25 | -5.74 | CCCc1c(-c2ccc(O)cc2)[nH]c2nccnc12
26 | -6.28 | Cc1c(-c2ccc(O)cc2)[nH]c2nccnc12
27 | -6.04 | CCCCc1c(-c2ccc(OC)cc2)[nH]c2nccnc12 [ALOISINE]
28 | -5.6 | COc1ccc(-c2[nH]c3nccnc3c2CCCCl)cc1
29 | -6.12 | CC(C)c1c(-c2ccc(Cl)cc2)[nH]c2nccnc12
30 | -5.77 | Cc1c(-c2ccc(Cl)cc2)[nH]c2nccnc12
31 | -5.1 | Clc1ccc(-c2[nH]c3nccnc3c2CC2CCCCC2)cc1
32 | -6.22 | C=CCc1c(-c2ccc(OC)cc2)[nH]c2nccnc12
33 | -6.3 | COc1ccc(-c2[nH]c3nccnc3c2C(C)C)cc1
34 | -6.34 | COc1ccc(-c2[nH]c3nccnc3c2C)cc1
